# Source: ChEMBL document CHEMBL1201862, “PubChem BioAssay data set” (2004)
#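 48-hour exposure; five concentrations; linearly interpolated endpoints. GI50 is the concentration that inhibits growth by half.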 Active and inactive are the calls of the source. Cut-off read from the data, not from the text of the source: active = GI50 up to about 1.1 µM and inactive = higher.
# How the values were obtained:
# Assay in all cases: NCI anticancer screen, dose series, 48 h
# [1] = system: Malme-3M
# [2] = system: OVCAR-4
# [3] = system: KM-20L2
# [4] = system: HCT-116
# [5] = system: OVCAR-3
# [6] = system: DMS-273
# [7] = system: RXF 393
# [8] = system: RPMI-8226
# [9] = system: HOP-62
# [10] = system: IGROV-1
# [11] = system: OVCAR-5
# [12] = system: NCI-H460
# [13] = system: SK-MEL-5
# [14] = system: SF-268
# [15] = system: HCC 2998
# [16] = system: MOLT-4
# [17] = system: SNB-78
# [18] = system: TK-10
# [19] = system: SNB-75
# [20] = system: HT-29
# [21] = system: SW-620
# [22] = system: M14
# [23] = system: NCI-H522
# [24] = system: SK-OV-3
# [25] = system: 786-0
# [26] = system: NCI-H226
# [27] = system: CCRF-CEM
# [28] = system: M19-MEL
# [29] = system: XF498
# [30] = system: A549
# [31] = system: SF-539
# [32] = system: UO-31
# [33] = system: SF-295
# [34] = system: KM12
# [35] = system: EKVX
# [36] = system: SN12C
# [37] = system: COLO 205
# [38] = system: LXFL 529
# [39] = system: OVCAR-8
# [40] = system: SNB-19
# [41] = system: NCI-H23
# [42] = system: SR
# [43] = system: CAKI-1
# [44] = system: ACHN
# [45] = system: SK-MEL-2
# [46] = system: K562
# [47] = system: HCT-15
# [48] = system: UACC-62
# [49] = system: U-251
# [50] = system: HOP-18
# [51] = system: LOX IMVI
# [52] = system: UACC-257
# [53] = system: HOP-92
# [54] = system: SK-MEL-28
# [55] = system: DLD-1
# [56] = system: A498
# [57] = system: HL-60
# [58] = system: DMS-114
structure (smiles),measurement,setting,value
CC1OC(=O)C(O)=C1O (stereo not drawn),GI50,[1],> 100 µM (inactive)
same,GI50,[2],> 100 µM (inactive)
same,GI50,[3],> 100 µM (inactive)
same,GI50,[4],> 100 µM (inactive)
same,GI50,[5],> 100 µM (inactive)
same,GI50,[6],> 100 µM (inactive)
same,GI50,[7],> 100 µM (inactive)
same,GI50,[8],> 100 µM (inactive)
same,GI50,[9],> 100 µM (inactive)
same,GI50,[10],> 100 µM (inactive)
same,GI50,[11],> 100 µM (inactive)
same,GI50,[12],> 100 µM (inactive)
same,GI50,[13],> 100 µM (inactive)
same,GI50,[14],47.2 µM (inactive)
same,GI50,[15],> 100 µM (inactive)
same,GI50,[16],> 100 µM (inactive)
same,GI50,[17],> 100 µM (inactive)
same,GI50,[18],> 100 µM (inactive)
same,GI50,[19],> 100 µM (inactive)
same,GI50,[20],> 100 µM (inactive)
same,GI50,[21],> 100 µM (inactive)
same,GI50,[22],> 100 µM (inactive)
same,GI50,[23],> 100 µM (inactive)
same,GI50,[24],> 100 µM (inactive)
same,GI50,[25],> 100 µM (inactive)
same,GI50,[26],> 100 µM (inactive)
same,GI50,[27],> 100 µM (inactive)
same,GI50,[28],> 100 µM (inactive)
same,GI50,[29],> 100 µM (inactive)
same,GI50,[30],> 100 µM (inactive)
same,GI50,[31],> 100 µM (inactive)
same,GI50,[32],> 100 µM (inactive)
same,GI50,[33],> 100 µM (inactive)
same,GI50,[34],> 100 µM (inactive)
same,GI50,[35],> 100 µM (inactive)
same,GI50,[36],> 100 µM (inactive)
same,GI50,[37],> 100 µM (inactive)
same,GI50,[38],> 100 µM (inactive)
same,GI50,[39],> 100 µM (inactive)
same,GI50,[40],> 100 µM (inactive)
same,GI50,[41],> 100 µM (inactive)
same,GI50,[42],> 100 µM (inactive)
same,GI50,[43],> 100 µM (inactive)
same,GI50,[44],> 100 µM (inactive)
same,GI50,[45],> 100 µM (inactive)
same,GI50,[46],> 100 µM (inactive)
same,GI50,[47],> 100 µM
same,GI50,[48],> 100 µM (inactive)
same,GI50,[49],> 100 µM (inactive)
same,GI50,[50],> 100 µM (inactive)
same,GI50,[51],> 100 µM (inactive)
same,GI50,[52],> 100 µM (inactive)
same,GI50,[53],> 100 µM (inactive)
Cc1ccc(C2[C@H]3C(=O)N(c4ccc(Cc5ccc(N6C(=O)[C@@H]7ON(c8ccccc8)C(c8ccc(C)cc8)[C@@H]7C6=O)cc5)cc4)C(=O)[C@H]3ON2c2ccccc2)cc1 (stereo partly drawn),GI50,[1],> 100 µM (inactive)
same,GI50,[2],> 100 µM (inactive)
same,GI50,[54],> 100 µM (inactive)
same,GI50,[3],> 100 µM (inactive)
same,GI50,[5],> 100 µM (inactive)
same,GI50,[6],> 100 µM (inactive)
same,GI50,[7],> 100 µM (inactive)
same,GI50,[8],> 100 µM (inactive)
same,GI50,[9],> 100 µM (inactive)
same,GI50,[10],> 100 µM (inactive)
same,GI50,[11],> 100 µM (inactive)
same,GI50,[12],> 100 µM (inactive)
same,GI50,[13],> 100 µM (inactive)
same,GI50,[14],> 100 µM (inactive)
same,GI50,[15],> 100 µM (inactive)
same,GI50,[16],> 100 µM (inactive)
same,GI50,[19],99.8 µM (inactive)
same,GI50,[20],> 100 µM (inactive)
same,GI50,[21],> 100 µM (inactive)
same,GI50,[22],91.6 µM (inactive)
same,GI50,[24],> 100 µM (inactive)
same,GI50,[25],> 100 µM (inactive)
same,GI50,[26],> 100 µM (inactive)
same,GI50,[27],> 100 µM (inactive)
same,GI50,[28],> 100 µM (inactive)
same,GI50,[29],> 100 µM (inactive)
same,GI50,[55],> 100 µM (inactive)
same,GI50,[56],> 100 µM (inactive)
same,GI50,[30],> 100 µM (inactive)
same,GI50,[31],> 100 µM (inactive)
same,GI50,[32],> 100 µM (inactive)
same,GI50,[57],> 100 µM (inactive)
same,GI50,[33],> 100 µM (inactive)
same,GI50,[34],> 100 µM (inactive)
same,GI50,[36],> 100 µM (inactive)
same,GI50,[37],> 100 µM (inactive)
same,GI50,[38],> 100 µM (inactive)
same,GI50,[41],> 100 µM (inactive)
same,GI50,[43],> 100 µM (inactive)
same,GI50,[44],> 100 µM (inactive)
same,GI50,[45],> 100 µM (inactive)
same,GI50,[46],> 100 µM (inactive)
same,GI50,[47],> 100 µM
same,GI50,[48],> 100 µM (inactive)
same,GI50,[49],> 100 µM (inactive)
same,GI50,[50],> 100 µM (inactive)
same,GI50,[58],> 100 µM (inactive)
same,GI50,[51],> 100 µM (inactive)
same,GI50,[52],> 100 µM (inactive)
same,GI50,[53],> 100 µM (inactive)
